Assays:
Assay type in all cases: biochemical
aKMT4 [1] = target: T1, aKMT4 (Saccharolobus islandicus, UniProt F0NBH8, G38R); assay: 3H-methyl incorporation into sisMCM, SDS-PAGE and autoradiography; details: methyl acceptor sisMCM (2 μM), 50°C, labelled compound, methyltransferase-deficient mutant, no activity seen
T1 construct: gene SiRe_1449; recombinant, overexpressed in E. coli BL21(DE3) CodonPlus RIL; purified as in Niu et al. 2013; apparent mass 18 kDa

aKMT4 [2] = target: T2, aKMT4 (Saccharolobus islandicus, UniProt F0NBH8); assay: as above; details: methyl acceptor sisMCM (2 μM), also automethylation, 50°C, labelled compound
T2 construct: gene SiRe_1449
T2 sequence (F0NBH8 whole entry): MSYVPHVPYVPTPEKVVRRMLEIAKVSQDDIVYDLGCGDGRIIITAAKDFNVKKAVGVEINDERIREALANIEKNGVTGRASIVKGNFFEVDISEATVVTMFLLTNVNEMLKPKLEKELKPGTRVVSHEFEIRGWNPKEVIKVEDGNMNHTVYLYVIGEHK

sisMCM (MCM) = target: T3, sisMCM (MCM) (Saccharolobus islandicus, UniProt F0NF15, K280M/K281M); assay: ATPase assay, [γ-32P]ATP, PEI cellulose TLC; details: 1 mM ATP, 100 nM protein, 10 mM magnesium acetate, pH 8.0, 65°C, 30 min; labelled compound; methylation-mimic mutant
T3 construct: recombinant, pGEX-6P-1 in E. coli BL21(DE3) CodonPlus RIL; GST tag removed with PreScission protease; apparent mass 75 kDa; hexamer
T3 sequence (F0NF15 entry or part of it K280M/K281M): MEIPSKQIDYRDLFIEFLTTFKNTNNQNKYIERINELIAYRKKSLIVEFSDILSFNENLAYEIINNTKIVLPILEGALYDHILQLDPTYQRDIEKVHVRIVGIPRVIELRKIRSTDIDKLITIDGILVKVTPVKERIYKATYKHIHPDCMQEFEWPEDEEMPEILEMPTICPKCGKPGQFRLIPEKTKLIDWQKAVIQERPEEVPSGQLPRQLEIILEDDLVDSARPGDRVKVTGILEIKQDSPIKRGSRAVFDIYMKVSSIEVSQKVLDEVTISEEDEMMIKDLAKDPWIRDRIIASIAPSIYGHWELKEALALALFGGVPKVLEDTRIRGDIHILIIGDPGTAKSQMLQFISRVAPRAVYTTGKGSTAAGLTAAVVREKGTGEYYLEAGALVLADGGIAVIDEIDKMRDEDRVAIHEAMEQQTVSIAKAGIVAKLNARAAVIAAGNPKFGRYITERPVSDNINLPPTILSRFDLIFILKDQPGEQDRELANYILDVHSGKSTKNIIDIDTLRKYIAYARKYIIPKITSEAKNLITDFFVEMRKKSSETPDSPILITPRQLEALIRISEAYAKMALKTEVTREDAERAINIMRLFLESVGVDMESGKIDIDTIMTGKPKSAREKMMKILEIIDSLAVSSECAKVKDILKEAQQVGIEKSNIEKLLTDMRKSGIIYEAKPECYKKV

T1 sequence (F0NBH8 whole entry G38R): as the sequence (F0NBH8 whole entry) above, with G38R counted along it

Row | Structure (SMILES) | 3H-methyl incorporation into sisMCM, SDS-PAGE and autoradiography (aKMT4 [1]) | 3H-methyl incorporation into sisMCM, SDS-PAGE and autoradiography (aKMT4 [2]) | ATPase assay, [γ-32P]ATP, PEI cellulose TLC (sisMCM (MCM))
1 | C[S+](CC[C@H](N)C(=O)O)C[C@H]1O[C@@H](n2cnc3c(N)ncnc32)[C@H](O)[C@@H]1O (stereo partly drawn) [AdoMet] | no tritium incorporation was observed in the presence of a methyltransferase-deficient mutant aKMT4-G38R | We noticed potent ^3H-methyl incorporation into sisMCM protein as well as aKMT4 itself | –
2 | Nc1ncnc2c1ncn2[C@@H]1O[C@H](COP(=O)(O)OP(=O)(O)OP(=O)(O)O)[C@@H](O)[C@H]1O [ATP] | – | – | As for ATPase, K280M/K281M showed moderately decreased activity as wild type
